Laboratory results from article PMC6593178 (Bioorganic & Medicinal Chemistry Letters, 2019).
Entries after “also recorded” stand apart in the source; their conditions may differ. Where two headings read alike, the source gives them in different places.

What was measured:
CphA [1] = molecular target: T1, CphA (Aeromonas hydrophila, UniProt P26918); assay: β-lactamase inhibition, meropenem hydrolysis UV assay; format: biochemical; details: subclass B2
T1 construct: made in house; host or cells: E. coli
T1 sequence (P26918 28-254): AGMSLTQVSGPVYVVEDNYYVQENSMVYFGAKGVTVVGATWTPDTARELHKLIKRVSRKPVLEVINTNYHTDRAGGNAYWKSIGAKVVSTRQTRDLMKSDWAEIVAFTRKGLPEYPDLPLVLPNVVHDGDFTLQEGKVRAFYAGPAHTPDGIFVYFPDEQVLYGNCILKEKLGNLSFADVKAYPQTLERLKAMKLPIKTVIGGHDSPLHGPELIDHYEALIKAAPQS
Procedure: (§1) Recombinant MBLs and SBLs were produced in E. coli and purified following reported procedures^1-6 and were all >95% pure (as judged by SDS-PAGE and MS analyses). Note the TEM enzyme used in this study is named TEM-116^7, in previous studies this has been assigned incorrectly as TEM-1^3, 5, 8-14. […] Activity was assayed by monitoring the release of a fluorophore following the enzymatic breakdown of the cephalosporin FC-5^15, with the exception of the class B2 MBLs, where the hydrolysis of meropenem was used as a readout^16. FC-5 assays were conducted in clear bottomed 384 black well microplates (Greiner) and the initial rate of reaction was assessed by monitoring the fluorescence intensity (λex = 380 nm and λem = 460 nm) using a PHERAstar FS (BMG LabTech) plate reader^15. For the B2 MBLs, assays were carried out in 96 well UV star microplates (Greiner) and UV absorbance at λ = 300 nm monitored. Initial rates of reaction were determined and dose-response analyses conducted in GraphPad Prism^15.

AmpC [2] = molecular target: T2, AmpC (Pseudomonas aeruginosa, UniProt P24735); assay: β-lactamase inhibition, FC-5 fluorogenic cephalosporin assay; format: biochemical; details: class C
T2 construct: made in house; host or cells: E. coli
T2 sequence (P24735 27-397): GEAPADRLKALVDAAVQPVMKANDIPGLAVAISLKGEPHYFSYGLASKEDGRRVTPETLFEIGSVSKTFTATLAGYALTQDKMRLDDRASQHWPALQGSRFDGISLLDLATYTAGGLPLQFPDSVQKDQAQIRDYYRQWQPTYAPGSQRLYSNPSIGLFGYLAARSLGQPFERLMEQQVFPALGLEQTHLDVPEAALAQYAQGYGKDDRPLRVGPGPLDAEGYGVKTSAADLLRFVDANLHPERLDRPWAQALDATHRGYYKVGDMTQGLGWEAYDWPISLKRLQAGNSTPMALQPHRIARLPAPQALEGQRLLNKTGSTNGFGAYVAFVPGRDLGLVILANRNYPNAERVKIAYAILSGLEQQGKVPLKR
Procedure: as §1

IMP-1 = molecular target: T3, IMP-1 (Serratia marcescens, UniProt P52699); assay: as above; format: biochemical; details: IMP-1, subclass B1
T3 construct: made in house; host or cells: E. coli
T3 sequence (P52699 19-246, looked up, species assumed): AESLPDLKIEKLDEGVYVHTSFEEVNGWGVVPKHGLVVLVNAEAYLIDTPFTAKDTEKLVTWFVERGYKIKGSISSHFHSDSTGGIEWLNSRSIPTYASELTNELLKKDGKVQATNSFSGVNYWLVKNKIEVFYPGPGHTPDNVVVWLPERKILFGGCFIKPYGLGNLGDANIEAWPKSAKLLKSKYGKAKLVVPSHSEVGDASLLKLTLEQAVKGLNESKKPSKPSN
Procedure: as §1

KPC-2 = molecular target: T4, KPC-2 (Klebsiella pneumoniae, UniProt Q9F663); assay: as above; format: biochemical; details: KPC-2, class A
T4 construct: made in house; host or cells: E. coli
T4 sequence (Q9F663 25-293, looked up, species assumed): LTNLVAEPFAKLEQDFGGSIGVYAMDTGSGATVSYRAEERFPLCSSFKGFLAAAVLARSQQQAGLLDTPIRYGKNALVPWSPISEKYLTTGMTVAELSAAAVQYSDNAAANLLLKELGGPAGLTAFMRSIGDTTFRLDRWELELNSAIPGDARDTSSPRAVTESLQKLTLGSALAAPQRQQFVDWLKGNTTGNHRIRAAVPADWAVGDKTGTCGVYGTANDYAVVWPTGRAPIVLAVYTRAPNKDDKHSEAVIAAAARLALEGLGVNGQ
Procedure: as §1

L1 [3] = molecular target: T5, L1 (Stenotrophomonas maltophilia, UniProt P52700); assay: as above; format: biochemical; details: L1, subclass B3
T5 construct: made in house; host or cells: E. coli
T5 sequence (P52700 34-290): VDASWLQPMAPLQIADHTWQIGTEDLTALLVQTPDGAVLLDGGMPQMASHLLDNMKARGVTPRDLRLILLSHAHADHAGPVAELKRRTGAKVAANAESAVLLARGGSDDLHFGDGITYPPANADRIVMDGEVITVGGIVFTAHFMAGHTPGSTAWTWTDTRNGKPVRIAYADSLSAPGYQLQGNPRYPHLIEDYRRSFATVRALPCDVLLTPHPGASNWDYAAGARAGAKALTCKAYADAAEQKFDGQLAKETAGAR
Procedure: as §1

NDM-1 = molecular target: T6, NDM-1 (Klebsiella pneumoniae, UniProt C7C422); assay: as above; format: biochemical; details: NDM-1, subclass B1
T6 construct: made in house; host or cells: E. coli
T6 sequence (C7C422 29-270, looked up, species assumed): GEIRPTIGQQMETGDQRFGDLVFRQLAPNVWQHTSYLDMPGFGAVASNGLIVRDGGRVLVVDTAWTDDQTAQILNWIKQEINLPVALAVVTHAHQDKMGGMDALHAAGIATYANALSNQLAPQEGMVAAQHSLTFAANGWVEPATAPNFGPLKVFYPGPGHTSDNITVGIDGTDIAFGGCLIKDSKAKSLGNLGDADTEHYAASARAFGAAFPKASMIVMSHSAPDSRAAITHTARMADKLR
Procedure: as §1

OXA-10 = molecular target: T7, OXA-10 (Pseudomonas aeruginosa, UniProt P14489); assay: as above; format: biochemical; details: for IC50: OXA-10, class D
T7 construct: made in house; host or cells: E. coli
T7 sequence (P14489 20-266, species assumed): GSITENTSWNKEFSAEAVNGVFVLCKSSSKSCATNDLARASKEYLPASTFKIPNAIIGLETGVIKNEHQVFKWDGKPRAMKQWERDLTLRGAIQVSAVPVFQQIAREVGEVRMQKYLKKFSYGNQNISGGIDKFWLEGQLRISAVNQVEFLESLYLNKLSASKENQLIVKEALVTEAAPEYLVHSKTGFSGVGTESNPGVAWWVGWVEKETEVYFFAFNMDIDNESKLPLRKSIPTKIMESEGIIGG
Procedure: as §1

VIM-1 = molecular target: T8, VIM-1 (Pseudomonas aeruginosa, UniProt A0A0F7KYQ8); assay: as above; format: biochemical; details: VIM-1, subclass B1
T8 construct: made in house; host or cells: E. coli
Procedure: as §1

VIM-2 = molecular target: T9, VIM-2 (Escherichia coli, UniProt Q5U7L7); assay: as above; format: biochemical; details: VIM-2, subclass B1
T9 construct: made in house; host or cells: E. coli
Procedure: as §1

OXA-48 = molecular target: T10, OXA-48 (Klebsiella pneumoniae, UniProt Q6XEC0); assay: as above; format: biochemical; details: Vaborbactam IC50, OXA-48, class D, 100 mM NaHCO3
T10 construct: made in house; host or cells: E. coli
T10 sequence (Q6XEC0 23-265, looked up, species assumed): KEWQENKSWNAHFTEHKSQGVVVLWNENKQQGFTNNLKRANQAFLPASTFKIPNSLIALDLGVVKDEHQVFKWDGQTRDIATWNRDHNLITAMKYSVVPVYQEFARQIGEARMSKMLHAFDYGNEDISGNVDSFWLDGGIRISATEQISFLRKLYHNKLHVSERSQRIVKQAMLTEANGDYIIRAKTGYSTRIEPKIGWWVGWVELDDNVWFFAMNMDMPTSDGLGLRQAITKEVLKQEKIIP

CTX-M15 [4] = molecular target: CTX-M15; design: method as in PMID 25782055; details: read-out: Vaborbactam Ki; CTX-M15, nitrocefin assay; cited from earlier work
SHV-12 = details: read-out: Vaborbactam Ki; SHV-12, nitrocefin assay; cited from earlier work
KPC-2 carbapenemase = molecular target: KPC-2 carbapenemase; design: method as in PMID 25782055; details: read-out: Vaborbactam Ki; KPC-2, nitrocefin assay; cited from earlier work
cephalosporinase P99 = molecular target: cephalosporinase P99; design: method as in PMID 25782055; details: read-out: Vaborbactam Ki; P99, nitrocefin assay; cited from earlier work
CMY-2 = molecular target: CMY-2; design: method as in PMID 25782055; details: read-out: Vaborbactam Ki; CMY-2, nitrocefin assay; cited from earlier work
[5] = test system: class B MBLs (IMP-1, VIM-1, VIM-2, NDM-1 and L1); design: method as in PMID 27401561; details: across the same range of inhibitor concentrations as vaborbactam; cited from earlier work
CTX-M15 [6] = test system: CTX-M15; design: method as in PMID 28115348; details: read-out: Cyclic Boronate (CB2) IC50; cited from earlier work
CphA [7] = molecular target: T1, CphA; details: cited from earlier work
L1 [8] = molecular target: T5, L1; details: cited from earlier work
AmpC [9] = molecular target: T2, AmpC; details: read-out: Cyclic Boronate (CB2) IC50; cited from earlier work

For O=C(O)C[C@@H]1CC[C@H](NC(=O)Cc2cccs2)B(O)O1 [Vaborbactam, vaborbactam], the IC50 (CphA [1]) was 631 µM, the IC50 (AmpC [2]) was 5 µM and the IC50 (IMP-1) was 126 µM. It also gave an IC50 (KPC-2) of 0.09 µM, an IC50 (L1 [3]) of 336 µM and an IC50 (NDM-1) of 631 µM. The IC50 (OXA-10; without NaHCO3) was > 400 µM, the IC50 (OXA-10; read-out: Vaborbactam IC50, 100 mM NaHCO3) was > 400 µM and the inhibition at 400 µM (OXA-10; read-out: inhibition of OXA-10 at the highest tested concentration) was < 50%. The IC50 (VIM-1) was 398 µM, the IC50 (VIM-2) was 316 µM and the IC50 (OXA-48) was 32 µM. The Ki (CTX-M15 [4]) was 0.044 µM, the Ki (SHV-12) was 0.029 µM and the Ki (KPC-2 carbapenemase) was 0.069 µM. The Ki (cephalosporinase P99) was 0.053 µM and the Ki (CMY-2) was 0.099 µM.

For NC(=O)[C@@H]1CC[C@@H]2CN1C(=O)N2OS(=O)(=O)O [avibactam], the “inhibition of MBLs” value [5] is given as “does not show any inhibition”.

In the case of NCc1ccc(C(=O)N[C@H]2Cc3cccc(C(=O)O)c3OB2O)cc1 [CB2], the IC50 (CTX-M15 [6]) is listed as 0.013 µM, the “inhibitory activity against B2 CphA” value (CphA [7]; CphA (mono Zn(II))) is listed as “do not exhibit inhibitory activity” and the IC50 (CphA [7]; read-out: Cyclic Boronate (CB2) IC50, CphA) is listed as > 100 µM. The “Cyclic Boronate (CB2) IC50” value (L1 [8]) was “do not exhibit inhibitory activity; also recorded: Not inhibited[19]” and the IC50 (AmpC [9]) was 0.12 µM.
